This note sets out measurements from PMC12752627, “Discovery of a Potent and Selective TEAD Degrader with Durable Degradation Activity” (Advanced Science, 2025).

By IC50 is commonly meant the midpoint of a concentration-inhibition curve.

For data set [1], the target named is T1, CRBN (Homo sapiens, UniProt Q96SW2).
T1 construct: expressed in transfected cells; host or cells: HEK293T
In words: Intracellular CRBN binding in NanoLuc-CRBN-overexpressing HEK293T cells. As to conditions: read-out: Cellular CRBN Binding IC50 (nM ± SD). In kind it is cell-based. The method, then: NanoLuc‐CRBN‐overexpressing HEK293T were seeded in 96‐well plates at a density of 2000 per well. The following day, compounds was added to the plate starting from 10 µM for a 3‐fold gradient dilution and incubated for 2 h. […] Finally, the signal was measured using an Envision plate reader (Revvity) and the data were analyzed using the GraphPad Prism 9.5 software.

Data set [2] has as its system HOS cells. In words: Cell viability assay (CTG, 72 h) HOS. In kind it is cell-based. Particulars: Homo sapiens, HOS, 72 h, 3-day compound treatment. How it is done:
Cells were seeded at a density of 1000 cells per well in 96‐well flat‐bottomed cell culture plates and cultured overnight at 37 °C with 5% CO2 to allow for cell attachment. The following day, different concentrations of compounds were added using an I‐DOT dispenser. After 72 h, 25 µL of CellTiter‐Meiluncell Luminescent Cell Viability Reagent (Meilunbio, #PWL111‐2) was added and incubated for 15 min at room temperature. Luminescence signals were then measured using an Envision plate reader (Revvity). Data were analyzed using GraphPad Prism 9.5 software.^[ [30] ^]

Data set [3] can be described thus: 7-day toxicological study in MSTO-211H tumor-bearing mice. Particulars: 10 or 30 mg/kg i.p. daily, 7 days. In kind it is in vivo. How it is done: A toxicological evaluation was conducted using an MSTO‐211H xenograft mouse model. All animal studies were carried out in accordance with protocols approved by the Institutional Animal Care and Use Committees of Tongji University and the Chinese Academy of Sciences, and in compliance with national, institutional and local regulations. These experiments were conducted in specific‐pathogen‐free (SPF) and Helicobacter‐free facilities at both institutions. After 7 consecutive days of drug administration (10 mg kg^−1 or 30 mg kg^−1, i.p., q.d.), whole blood and major organs—including the heart, liver, spleen, lungs, and kidneys—were collected for analysis. Blood samples were anticoagulated with EDTA (1.5 mg mL^−1), gently mixed, and subjected to standard hematological assessment. Tissue samples were processed for both paraffin‐embedded and frozen section analysis. Paraffin embedding involved fixation, graded dehydration, clearing, embedding, sectioning at 4 µm, and dewaxing to water. Frozen sections were prepared by embedding tissues in OCT compound, sectioning at −20 °C with a thickness of 8 µm, followed by acetone fixation and rinsing with PBS. […] Microscopic examinations and image acquisition were carried out, and quantitative analyses were performed using specialized image analysis software. […]

T1 sequence (Q96SW2 whole entry): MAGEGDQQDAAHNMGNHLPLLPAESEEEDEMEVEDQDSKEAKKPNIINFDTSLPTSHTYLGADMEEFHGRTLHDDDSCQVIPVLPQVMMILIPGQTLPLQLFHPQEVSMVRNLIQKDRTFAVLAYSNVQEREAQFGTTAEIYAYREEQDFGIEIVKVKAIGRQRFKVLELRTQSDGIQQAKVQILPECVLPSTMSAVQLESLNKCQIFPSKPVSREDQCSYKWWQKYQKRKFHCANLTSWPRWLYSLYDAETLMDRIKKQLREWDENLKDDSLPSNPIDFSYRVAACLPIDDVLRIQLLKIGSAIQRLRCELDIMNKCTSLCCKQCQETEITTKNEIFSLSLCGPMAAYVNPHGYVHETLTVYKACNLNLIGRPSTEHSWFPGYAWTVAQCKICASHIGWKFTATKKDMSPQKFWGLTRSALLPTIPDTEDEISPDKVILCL

Turning to `CNC(=O)c1cc2c(c(F)c1-c1c(Cl)c(F)cc3c1C[C@@](CN[C@H]1CC[C@H](C(=O)N4CCC(CC5CCN(C(=O)COc6ccc(N7CCC(=O)NC7=O)c(C)c6)CC5)CC4)CC1)(c1ccccc1)O3)[C@@H](O)[C@@H](C)C2` [KG-FP-003], the IC50 in data set [1] was 962 ± 86 nM. In addition, the IC50 in data set [2] was determined as 1.2 ± 1.5 nM. In addition, in data set [3], the Hematological analyses result was “no significant deviations from baseline” and the “Histopathological examination of heart, liver, spleen, lungs, kidneys” value is “no structural abnormalities or pathological lesions”.
